Reference: ChEMBL document CHEMBL1201862, “PubChem BioAssay data set” (2004)
The source made the active and inactive calls.

Key:
Cytochrome P450 2D6 = Cytochrome P450 2D6 (Homo sapiens, UniProt P10635);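 further: CYP2D6 member of a cytochrome P450 panel assay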
Protein skinhead-1 = target: T1, Protein skinhead-1 (Caenorhabditis elegans, UniProt P34707); assay type: functional
T1 sequence (P34707 whole entry): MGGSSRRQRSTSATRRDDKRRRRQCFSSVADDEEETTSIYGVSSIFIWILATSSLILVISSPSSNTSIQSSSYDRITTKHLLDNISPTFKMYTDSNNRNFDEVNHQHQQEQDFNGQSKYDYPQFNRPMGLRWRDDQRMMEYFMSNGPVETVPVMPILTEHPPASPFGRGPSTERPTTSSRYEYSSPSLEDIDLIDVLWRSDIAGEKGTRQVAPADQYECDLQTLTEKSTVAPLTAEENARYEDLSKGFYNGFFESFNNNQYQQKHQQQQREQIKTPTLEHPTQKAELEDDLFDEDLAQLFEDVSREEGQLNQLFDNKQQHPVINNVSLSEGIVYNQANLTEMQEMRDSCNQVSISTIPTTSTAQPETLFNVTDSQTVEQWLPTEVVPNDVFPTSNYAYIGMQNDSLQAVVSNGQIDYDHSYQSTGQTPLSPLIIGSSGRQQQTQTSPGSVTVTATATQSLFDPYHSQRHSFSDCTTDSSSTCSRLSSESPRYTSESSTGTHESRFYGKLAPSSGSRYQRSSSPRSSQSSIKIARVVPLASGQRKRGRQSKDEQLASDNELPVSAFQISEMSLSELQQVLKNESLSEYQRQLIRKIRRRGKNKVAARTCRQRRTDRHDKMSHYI

Fatty acid synthase [1] = target: T2, Fatty acid synthase (Homo sapiens, UniProt P49327); assay: FAS thioesterase domain inhibitors, dose response, biochemical, kinetic fluorescence intensity (AID 624326); assay type: functional;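 further: rate of fluorescence rise from hydrolysis of a fluorogenic O-methyl fluorescein ester substrate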
Fatty acid synthase [2] = target: T2, Fatty acid synthase; assay: FAS thioesterase domain inhibitors, dose response, biochemical, endpoint fluorescence intensity, uHTS hits (AID 624327); assay type: functional;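 further: fluorescence from hydrolysis of an O-methyl fluorescein acyl ester substrate by the enzyme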
[3] = target: T3, Replicative DNA helicase DnaB (Mycobacterium tuberculosis, UniProt P9WMR3); assay: DnaB intein splicing inhibitors, dose response, biochemical, cell-free fluorescence (AID 449749); assay type: functional
T3 sequence (P9WMR3 whole entry): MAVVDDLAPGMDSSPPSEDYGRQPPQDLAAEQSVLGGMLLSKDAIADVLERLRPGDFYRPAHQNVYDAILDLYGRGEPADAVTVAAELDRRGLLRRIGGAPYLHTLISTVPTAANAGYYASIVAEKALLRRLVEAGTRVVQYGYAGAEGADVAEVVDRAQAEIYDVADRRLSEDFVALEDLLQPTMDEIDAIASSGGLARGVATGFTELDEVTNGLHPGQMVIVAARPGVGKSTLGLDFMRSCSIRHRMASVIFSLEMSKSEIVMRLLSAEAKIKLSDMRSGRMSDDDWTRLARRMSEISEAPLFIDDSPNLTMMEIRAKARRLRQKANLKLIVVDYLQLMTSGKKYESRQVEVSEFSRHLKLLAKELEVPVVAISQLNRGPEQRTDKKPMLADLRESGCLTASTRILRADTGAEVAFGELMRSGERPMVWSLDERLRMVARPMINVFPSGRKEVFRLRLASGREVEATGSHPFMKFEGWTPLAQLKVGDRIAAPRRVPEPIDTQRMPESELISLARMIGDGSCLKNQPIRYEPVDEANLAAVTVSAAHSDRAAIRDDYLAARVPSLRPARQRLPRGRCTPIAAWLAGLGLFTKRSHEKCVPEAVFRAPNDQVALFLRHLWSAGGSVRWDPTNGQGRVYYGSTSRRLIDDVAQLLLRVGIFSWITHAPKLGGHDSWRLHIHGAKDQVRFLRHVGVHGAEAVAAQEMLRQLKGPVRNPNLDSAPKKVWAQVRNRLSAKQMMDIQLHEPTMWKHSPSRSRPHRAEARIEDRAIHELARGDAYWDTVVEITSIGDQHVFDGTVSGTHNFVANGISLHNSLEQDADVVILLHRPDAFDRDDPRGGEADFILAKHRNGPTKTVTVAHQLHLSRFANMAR

[4] = inhibitors of firefly luciferase expression or activity, dose response, H4 neuroglioma cells, luminescence (AID 1990); assay type: functional, cell-based
[5] = inhibitors of SNCA 5'UTR-driven reporter translation, confirmation, H4 neuroglioma cells, luminescence (AID 1988); assay type: functional, cell-based
BJ [6] = assay: cells; assay type: functional, cell-based; conditions: Homo sapiens
BJ [7] = assay: cytotoxicity toward BJ-TERT fibroblasts, dose response, cell-based, RAS-independent, luminescence (AID 1933); assay type: functional; conditions: Homo sapiens
[8] = Luminescence Cell-Based Dose Confirmation HTS to Identify Inhibitors of Platelet Dense Granule Release. [Related pubchem assays: 1663 (Primary HTS), 1678 (Summary of Project)]; assay type: functional
cells = assay type: functional
[9] = cytotoxicity toward DRD oncogenic fibroblasts, dose response, cell-based, non-viral oncogenic, luminescence (AID 1934); assay type: functional; conditions: Homo sapiens
[10] = Luminescence Cell-Based Dose Response HTS to Identify Inhibitors of 5'UTR Stem-Loop Driven Prion Protein mRNA Translation in H4 Neuroglioblastoma Cells. [Related pubchem assays: 1827 (Project Summary), 1813 (Primary HTS)]; assay type: functional
Protein RecA = target: T4, Protein RecA (Mycobacterium tuberculosis, UniProt P9WHJ3); assay: Fluorescence Cell-Free Homogeneous Dose Retest to Identify Inhibitors of RecA-Intein Splicing Activity. [Related pubchem assays (depositor defined):AID2097, AID2223, AID489010, AID492950]; assay type: functional
T4 sequence (P9WHJ3 whole entry): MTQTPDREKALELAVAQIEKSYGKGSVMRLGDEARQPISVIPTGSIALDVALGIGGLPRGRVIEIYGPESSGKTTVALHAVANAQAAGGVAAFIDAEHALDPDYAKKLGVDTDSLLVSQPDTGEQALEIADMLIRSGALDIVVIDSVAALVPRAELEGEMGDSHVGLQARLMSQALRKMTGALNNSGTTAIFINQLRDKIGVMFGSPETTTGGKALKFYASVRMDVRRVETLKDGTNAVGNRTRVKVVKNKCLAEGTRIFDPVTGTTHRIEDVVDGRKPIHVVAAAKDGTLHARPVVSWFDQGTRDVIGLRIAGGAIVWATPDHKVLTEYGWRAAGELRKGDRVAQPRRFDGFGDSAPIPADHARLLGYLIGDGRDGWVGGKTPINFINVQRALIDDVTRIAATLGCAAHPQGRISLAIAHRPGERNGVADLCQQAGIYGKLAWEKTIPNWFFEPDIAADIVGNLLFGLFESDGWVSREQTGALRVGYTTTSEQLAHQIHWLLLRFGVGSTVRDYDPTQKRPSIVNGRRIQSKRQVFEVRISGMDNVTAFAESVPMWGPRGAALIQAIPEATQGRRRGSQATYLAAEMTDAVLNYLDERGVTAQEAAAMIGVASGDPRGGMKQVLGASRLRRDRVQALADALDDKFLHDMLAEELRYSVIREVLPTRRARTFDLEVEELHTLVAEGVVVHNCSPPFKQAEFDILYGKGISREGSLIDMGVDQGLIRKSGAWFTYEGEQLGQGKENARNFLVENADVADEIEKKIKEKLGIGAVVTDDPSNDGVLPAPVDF

BJ [11] = assay: cytotoxicity toward BJ-TERT-LT-ST fibroblasts, dose response, cell-based, RAS-independent, luminescence (AID 1935); assay type: functional; conditions: Homo sapiens;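 further: BJ fibroblasts immortalized with TERT plus LT and ST oncogenes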
[12] = THP-1 cell cytotoxicity, dose response, cytotoxicity control for non-replicating M. tuberculosis project (AID 489025); assay type: functional
[13] = target: Luciferin 4-monooxygenase (Photinus pyralis, UniProt P08659); assay: firefly luciferase enzyme inhibitors, dose response, biochemical, luminescence (AID 1891)
Streptococcus = assay: Group A Streptococcus viability loss, dose response, counter-screen for streptokinase expression inhibitor project, luminescence, BacTiterGlo (AID 1915); assay type: functional, organism-based;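 further: potency for reduction of bacterial viability or growth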
[14] = tested on: Streptococcus sp. 'group A'; assay: growth inhibition of control SK(-) GAS strain, dose response, counter-screen for streptokinase expression inhibitor project, luminescence, kanamycin, BacTiterGlo, confirmation (AID 1900); assay type: functional, organism-based
H9c2 = assay: cells; assay type: functional, cell-based; conditions: Rattus norvegicus, H9c2, Myocardium;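 further: confirmatory concentration-response retest of ultra-high-throughput screening hits for modulation of myocardial damage; cell death induced by hydrogen peroxide oxidative stress; compound pretreatment for 60 min then peroxide exposure for 2 h; potency is for protecting the cells against peroxide damage rather than for killing them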
[15] = P. falciparum Dd2 growth inhibitors, dose response, SYBR Green, cherry-picked samples (AID 1159567); assay type: functional, cell-based
Cytochrome P450 3A4 = Cytochrome P450 3A4 (Homo sapiens, UniProt P08684);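 further: CYP3A4 tested as one member of a cytochrome P450 panel screen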
Cytochrome P450 1A2 = target: T5, Cytochrome P450 1A2 (Homo sapiens, UniProt P05177);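 further: PubChem cytochrome P450 panel assay, CYP1A2 panel member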
T5 sequence (P05177 whole entry): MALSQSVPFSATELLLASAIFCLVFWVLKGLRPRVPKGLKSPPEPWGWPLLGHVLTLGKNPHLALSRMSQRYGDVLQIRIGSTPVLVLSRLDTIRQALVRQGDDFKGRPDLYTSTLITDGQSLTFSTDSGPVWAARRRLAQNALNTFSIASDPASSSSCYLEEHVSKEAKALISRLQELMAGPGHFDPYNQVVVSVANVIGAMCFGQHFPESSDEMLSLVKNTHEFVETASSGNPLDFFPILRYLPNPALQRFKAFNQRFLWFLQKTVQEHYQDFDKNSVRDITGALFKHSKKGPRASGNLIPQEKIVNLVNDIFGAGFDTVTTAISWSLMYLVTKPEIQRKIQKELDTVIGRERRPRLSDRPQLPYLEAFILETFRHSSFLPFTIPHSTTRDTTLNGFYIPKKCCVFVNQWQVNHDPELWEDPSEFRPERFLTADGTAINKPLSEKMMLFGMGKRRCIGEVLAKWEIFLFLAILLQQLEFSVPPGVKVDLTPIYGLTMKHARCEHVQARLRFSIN

T2 sequence (P49327 whole entry, the tested form may be a part): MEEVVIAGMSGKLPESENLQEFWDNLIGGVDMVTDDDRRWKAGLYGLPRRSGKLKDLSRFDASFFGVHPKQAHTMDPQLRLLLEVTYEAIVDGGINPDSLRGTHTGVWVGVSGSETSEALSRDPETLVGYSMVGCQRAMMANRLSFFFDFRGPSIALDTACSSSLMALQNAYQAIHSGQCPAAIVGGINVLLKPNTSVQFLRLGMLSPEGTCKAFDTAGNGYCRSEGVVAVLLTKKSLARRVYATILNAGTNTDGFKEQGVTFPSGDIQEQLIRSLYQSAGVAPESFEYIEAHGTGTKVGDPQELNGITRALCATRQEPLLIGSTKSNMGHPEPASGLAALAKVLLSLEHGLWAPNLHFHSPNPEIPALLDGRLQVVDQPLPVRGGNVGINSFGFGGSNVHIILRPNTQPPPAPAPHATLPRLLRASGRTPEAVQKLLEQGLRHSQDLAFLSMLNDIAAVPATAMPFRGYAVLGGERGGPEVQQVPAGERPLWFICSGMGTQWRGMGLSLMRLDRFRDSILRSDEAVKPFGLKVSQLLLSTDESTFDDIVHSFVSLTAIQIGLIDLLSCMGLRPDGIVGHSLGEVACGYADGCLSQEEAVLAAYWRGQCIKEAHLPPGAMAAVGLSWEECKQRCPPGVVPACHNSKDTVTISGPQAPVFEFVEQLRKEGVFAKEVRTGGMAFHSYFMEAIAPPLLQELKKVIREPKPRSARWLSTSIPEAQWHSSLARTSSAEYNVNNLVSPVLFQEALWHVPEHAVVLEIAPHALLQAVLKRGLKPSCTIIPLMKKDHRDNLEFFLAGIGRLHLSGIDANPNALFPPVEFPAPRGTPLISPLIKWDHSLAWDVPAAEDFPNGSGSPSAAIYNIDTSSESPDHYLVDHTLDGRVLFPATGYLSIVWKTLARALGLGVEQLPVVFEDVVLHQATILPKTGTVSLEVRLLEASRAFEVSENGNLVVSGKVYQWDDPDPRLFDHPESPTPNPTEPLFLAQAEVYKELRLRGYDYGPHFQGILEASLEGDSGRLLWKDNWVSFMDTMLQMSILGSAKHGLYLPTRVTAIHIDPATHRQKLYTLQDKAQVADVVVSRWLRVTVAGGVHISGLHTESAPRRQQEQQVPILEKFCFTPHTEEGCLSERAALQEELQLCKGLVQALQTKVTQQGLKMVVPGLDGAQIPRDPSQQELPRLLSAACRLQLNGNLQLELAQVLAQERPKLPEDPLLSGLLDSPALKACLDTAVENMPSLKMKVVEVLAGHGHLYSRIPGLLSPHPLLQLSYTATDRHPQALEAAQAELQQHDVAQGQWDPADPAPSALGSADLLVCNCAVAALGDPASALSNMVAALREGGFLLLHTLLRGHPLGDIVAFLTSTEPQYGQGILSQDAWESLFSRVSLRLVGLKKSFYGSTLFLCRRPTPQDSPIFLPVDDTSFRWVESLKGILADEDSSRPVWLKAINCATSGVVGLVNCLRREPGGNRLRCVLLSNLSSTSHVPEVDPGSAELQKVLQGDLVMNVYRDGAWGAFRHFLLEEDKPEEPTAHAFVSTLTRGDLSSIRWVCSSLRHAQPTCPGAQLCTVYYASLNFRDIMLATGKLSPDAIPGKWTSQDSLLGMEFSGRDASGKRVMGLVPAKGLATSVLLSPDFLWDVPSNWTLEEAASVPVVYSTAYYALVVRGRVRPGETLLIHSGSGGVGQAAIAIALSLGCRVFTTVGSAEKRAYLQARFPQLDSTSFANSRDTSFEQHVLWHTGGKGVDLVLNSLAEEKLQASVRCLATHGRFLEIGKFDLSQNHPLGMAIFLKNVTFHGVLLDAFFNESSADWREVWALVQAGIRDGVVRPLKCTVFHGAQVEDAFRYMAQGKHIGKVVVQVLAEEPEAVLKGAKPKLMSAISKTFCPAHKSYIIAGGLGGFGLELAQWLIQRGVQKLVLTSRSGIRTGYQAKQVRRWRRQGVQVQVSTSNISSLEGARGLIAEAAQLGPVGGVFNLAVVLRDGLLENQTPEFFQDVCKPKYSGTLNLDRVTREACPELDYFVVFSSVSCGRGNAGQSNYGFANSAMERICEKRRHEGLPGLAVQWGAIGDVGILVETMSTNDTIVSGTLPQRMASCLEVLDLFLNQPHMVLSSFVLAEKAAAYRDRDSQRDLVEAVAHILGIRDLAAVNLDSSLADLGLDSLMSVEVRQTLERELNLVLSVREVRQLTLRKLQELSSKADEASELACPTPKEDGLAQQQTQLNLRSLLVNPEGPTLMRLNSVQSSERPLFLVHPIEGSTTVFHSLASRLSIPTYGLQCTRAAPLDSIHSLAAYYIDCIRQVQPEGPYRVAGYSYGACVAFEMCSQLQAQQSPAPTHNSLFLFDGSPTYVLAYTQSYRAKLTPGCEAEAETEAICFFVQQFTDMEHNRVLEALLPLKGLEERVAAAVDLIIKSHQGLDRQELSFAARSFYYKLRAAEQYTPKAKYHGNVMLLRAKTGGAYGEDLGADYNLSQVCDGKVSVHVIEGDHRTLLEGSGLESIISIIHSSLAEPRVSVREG
Cytochrome P450 2D6, sequence (P10635 whole entry): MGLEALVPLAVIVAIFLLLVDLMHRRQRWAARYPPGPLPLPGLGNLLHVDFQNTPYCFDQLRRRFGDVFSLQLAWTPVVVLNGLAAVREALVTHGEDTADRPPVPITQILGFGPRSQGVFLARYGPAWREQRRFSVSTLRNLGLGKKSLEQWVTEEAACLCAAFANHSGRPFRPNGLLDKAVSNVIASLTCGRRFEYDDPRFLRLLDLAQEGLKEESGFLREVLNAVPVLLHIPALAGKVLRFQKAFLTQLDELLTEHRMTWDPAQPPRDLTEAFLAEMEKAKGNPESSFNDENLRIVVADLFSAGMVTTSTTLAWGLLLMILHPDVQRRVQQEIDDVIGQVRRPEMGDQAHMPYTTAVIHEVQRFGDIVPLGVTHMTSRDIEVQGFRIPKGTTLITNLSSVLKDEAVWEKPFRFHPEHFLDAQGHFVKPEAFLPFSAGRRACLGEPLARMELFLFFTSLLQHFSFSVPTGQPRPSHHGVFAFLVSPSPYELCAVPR
Luciferin 4-monooxygenase, sequence (P08659 whole entry): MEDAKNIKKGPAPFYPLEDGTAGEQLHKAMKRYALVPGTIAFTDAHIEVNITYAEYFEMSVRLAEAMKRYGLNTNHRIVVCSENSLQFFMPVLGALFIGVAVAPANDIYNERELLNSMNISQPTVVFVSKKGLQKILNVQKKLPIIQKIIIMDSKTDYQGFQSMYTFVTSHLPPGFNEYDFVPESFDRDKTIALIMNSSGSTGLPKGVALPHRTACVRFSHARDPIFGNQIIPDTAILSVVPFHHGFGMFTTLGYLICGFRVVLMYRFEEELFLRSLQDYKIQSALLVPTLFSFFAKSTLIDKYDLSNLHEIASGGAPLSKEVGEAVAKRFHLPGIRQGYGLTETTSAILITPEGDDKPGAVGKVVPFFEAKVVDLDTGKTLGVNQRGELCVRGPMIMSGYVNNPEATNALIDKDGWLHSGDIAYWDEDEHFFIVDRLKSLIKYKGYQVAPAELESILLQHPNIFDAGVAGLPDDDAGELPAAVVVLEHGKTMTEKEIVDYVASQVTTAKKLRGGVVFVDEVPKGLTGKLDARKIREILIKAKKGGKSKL
Cytochrome P450 3A4, sequence (P08684 whole entry): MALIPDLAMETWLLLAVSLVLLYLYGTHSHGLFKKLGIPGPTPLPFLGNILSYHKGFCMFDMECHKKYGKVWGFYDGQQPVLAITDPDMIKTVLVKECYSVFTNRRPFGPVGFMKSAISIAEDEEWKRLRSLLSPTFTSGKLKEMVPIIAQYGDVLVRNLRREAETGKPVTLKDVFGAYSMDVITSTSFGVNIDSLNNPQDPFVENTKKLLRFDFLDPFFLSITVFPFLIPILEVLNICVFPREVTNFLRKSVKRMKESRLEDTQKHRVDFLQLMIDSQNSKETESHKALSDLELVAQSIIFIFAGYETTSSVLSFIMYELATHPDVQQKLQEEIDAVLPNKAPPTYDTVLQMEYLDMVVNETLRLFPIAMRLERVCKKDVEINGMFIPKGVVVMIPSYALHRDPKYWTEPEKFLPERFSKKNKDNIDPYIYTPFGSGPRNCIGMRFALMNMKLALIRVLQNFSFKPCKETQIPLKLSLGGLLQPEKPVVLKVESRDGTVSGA

C=CCNc1nc(-c2ccc(Cl)cc2)cs1
AC50 (Cytochrome P450 2D6): 25.1 µM (inconclusive)
IC50 (Protein skinhead-1): > 100 µM (inactive)

Cc1cccc(Cn2c(Sc3nc(C)cs3)nc3c2c(=O)[nH]c(=O)n3C)c1
IC50 (Protein skinhead-1): > 100 µM (inactive)

Cc1ccc([N+](=O)[O-])cc1N=C(S)NCCc1ccccc1
IC50 (Fatty acid synthase [1]): 13.1 µM (active)
IC50 (Fatty acid synthase [2]): 12.1 µM (active)

O=C(Nc1ncc([N+](=O)[O-])s1)c1ccc2c(c1)OCO2
AC50 [3]: 21.2 µM (active)
EC50 [4]: 4.23 µM (active)
EC50 [5]: 3.42 µM (active)
EC50 (BJ [6]): 13.5 µM (active)
EC50 (BJ [7]): 14.1 µM (active)
EC50 [8]: 2.39 µM (active)
IC50 (cells): 34.4 µM (active)
EC50 [9]: 10.3 µM (active)
EC50 [10]: 7.3 µM (active)
EC50 (Protein RecA): 16.5 µM (active)
EC50 (BJ [11]): > 150 µM (inconclusive)
CC50 [12]: 28.9 µM (active)
EC50 [13]: 0.324 µM (active)

O=C(Nc1nnc(-c2ccco2)o1)c1ccc(Cl)s1
EC50 (Streptococcus): 10.1 µM (active)
IC50 (cells): 1.57 µM (active)
EC50 [14]: 3.01 µM (active)
CC50 [12]: > 40 µM (active)

COc1ccc(C2CC(c3cccs3)n3nc(N)nc3N2)cc1 (stereo unspecified)
IC50 (H9c2): > 79 µM (inactive)

COC(=O)c1cccc(S(=O)(=O)N(Cc2ccco2)Cc2cc3cc(OC)ccc3nc2O)c1
IC50 (H9c2): 31.7 µM (inactive)

CC(C)(C)OC(=O)CNC(=O)c1[nH]cnc1C(=O)NCC(=O)OCc1ccccc1
IC50 (H9c2): > 79 µM (inactive)

CC(C)c1ccc(NC(=O)NCc2cccnc2)cc1
IC50 (Protein skinhead-1): > 100 µM (inactive)

O=C(Cn1c(=O)c2sccc2n(Cc2ccc([N+](=O)[O-])cc2)c1=O)NCCc1ccccc1
IC50 (Fatty acid synthase [1]): 4.79 µM (active)
IC50 (Fatty acid synthase [2]): 5.6 µM (active)

COc1ccc(NC(=O)N(CCCN(C)C)Cc2cc3cc(OC)ccc3nc2O)cc1
IC50 (H9c2): > 79 µM (inactive)

Cc1c(Cl)c([N+](=O)[O-])nn1CCCC(=O)Nc1cccc(Cl)c1
IC50 (Fatty acid synthase [1]): 16.2 µM (active)
IC50 (Fatty acid synthase [2]): 17.6 µM (active)

O=C(CCc1nc(O)c2ccccc2n1)N1CCCc2ccccc21
IC50 (H9c2): > 79 µM (inactive)

O=[N+]([O-])c1ccc(S(=O)(=O)NN=Cc2ccc(Cl)c(Cl)c2)cc1
IC50 (Fatty acid synthase [1]): 2.68 µM (active)
IC50 (Fatty acid synthase [2]): 1.52 µM (active)

CC(C)NC(=O)N(C)C[C@H]1Oc2c(NC(=O)Nc3ccc(C(F)(F)F)cc3)cccc2C(=O)N([C@H](C)CO)C[C@@H]1C
IC50 (Fatty acid synthase [1]): 1.08 µM (active)
IC50 (Fatty acid synthase [2]): 0.842 µM (active)

COc1ccc(N2CC(C(=O)NCc3nnc(O)c4ccccc34)CC2=O)cc1 (stereo unspecified)
IC50 (H9c2): 12.9 µM (active)

O=C(c1cc(O)nc2ccccc12)N1CCN(S(=O)(=O)c2ccc(Cl)cc2)CC1
IC50 (H9c2): 14.4 µM (active)

O=C(Cn1[nH]c(=O)c2ccccc2c1=O)NNC(=O)c1ccccc1
IC50 (H9c2): 18.6 µM (active)

Cc1cc(C)c2c(N)c(C(=O)N/N=C/c3cccnc3)sc2n1
IC50 (H9c2): > 79 µM (inactive)

COC(=O)C1=C(C)N=C(C)/C(=C(/O)OC)C1c1ccc(OC(=O)c2ccco2)cc1 (stereo unspecified)
IC50 (Protein skinhead-1): > 100 µM (inactive)

COc1ccc2c3c([nH]c2c1)[C@@H](CO)N(Cc1cccc(Cl)c1)CC31CN(C(C)=O)C1
AC50 [15]: 10.6 µM (active)

COc1ccc2c3c([nH]c2c1)[C@@H](CO)N(C(=O)Cc1ccccc1)CC31CCN(C(=O)Cc2ccccc2)CC1
AC50 [15]: 4.77 µM (active)

CCCC(=O)N1CCC2(CC1)CN[C@@H](CO)c1[nH]c3cc(OC)ccc3c12
AC50 [15]: 6.24 µM (active)

CCCNC(=O)N1CCC2(CC1)CN(Cc1cccc(F)c1)[C@@H](CO)c1[nH]c3cc(OC)ccc3c12
AC50 [15]: 10.2 µM (active)

C[C@H]1CN([C@@H](C)CO)C(=O)c2c(c3ccccc3n2C)-c2ccccc2CO[C@@H]1CN(C)S(=O)(=O)c1ccccc1F
AC50 [15]: 3.81 µM (active)

O=C(Nc1ccccc1)OCCCc1ccccc1 [3-PHENYLPROPYL PHENYLCARBAMATE]
IC50 (Protein skinhead-1): 68.6 µM (inactive)

O=c1[nH]c2cc([N+](=O)[O-])c([N+](=O)[O-])cc2[nH]c1=O [DNQX]
AC50 (Cytochrome P450 3A4): 25.1 µM (inconclusive)
IC50 (Fatty acid synthase [1]): 6.88 µM (active)
AC50 (Cytochrome P450 1A2): 31.6 µM (inconclusive)
IC50 (Fatty acid synthase [2]): 8.63 µM (active)
